Assay results as given in ChEMBL document CHEMBL1201862, “PubChem BioAssay data set” (2004).
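96-well plates; 48 h exposure; 5 concentrations. Endpoints by linear interpolation between flanking doses. Not reached: highest tested concentration assigned. Abbreviation: GI50, concentration required for 50% inhibition of growth.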 Activity calls are given as the source filed them. Rule as the data show it: active = GI50 up to about 1.1 µM and inactive = higher.

Legend:
Assay in all cases: inhibition of tumour cell growth, NCI panel, 48 h
[1] = system: DMS-114
[2] = system: UACC-257
[3] = system: SN12C
[4] = system: SF-295
[5] = system: MOLT-4
[6] = system: HOP-92
[7] = system: NCI-H522
[8] = system: Malme-3M
[9] = system: SF-268
[10] = system: SK-MEL-28
[11] = system: SNB-19
[12] = system: HT-29
[13] = system: 786-0
[14] = system: OVCAR-3
[15] = system: U-251
[16] = system: SNB-75
[17] = system: HL-60
[18] = system: M19-MEL
[19] = system: SNB-78
[20] = system: IGROV-1
[21] = system: SF-539
[22] = system: CAKI-1
[23] = system: KM12
[24] = system: SK-MEL-2
[25] = system: OVCAR-8
[26] = system: SW-620
[27] = system: ACHN
[28] = system: HCT-15
[29] = system: HOP-62
[30] = system: SK-OV-3
[31] = system: NCI-H460
[32] = system: UACC-62
[33] = system: CCRF-CEM
[34] = system: A498
[35] = system: XF498
[36] = system: NCI-H23
[37] = system: LXFL 529
[38] = system: OVCAR-5
[39] = system: HCT-116
[40] = system: A549
[41] = system: HCC 2998
[42] = system: TK-10
[43] = system: COLO 205
[44] = system: UO-31
[45] = system: M14
[46] = system: K562
[47] = system: LOX IMVI
[48] = system: DLD-1
[49] = system: DMS-273
[50] = system: RPMI-8226
[51] = system: SR
[52] = system: RXF 393
[53] = system: SK-MEL-5
[54] = system: EKVX
[55] = system: OVCAR-4
[56] = system: HOP-18
[57] = system: NCI-H226

Structure (SMILES): CC(C)(C)OC(=O)NCC(=O)OCc1ccccc1
- GI50 [1]: > 100 µM (inactive)
- GI50 [2]: > 100 µM (inactive)
- GI50 [3]: > 100 µM (inactive)
- GI50 [4]: > 100 µM (inactive)
- GI50 [5]: > 100 µM (inactive)
- GI50 [6]: > 100 µM (inactive)
- GI50 [7]: > 10 µM (inactive)
- GI50 [8]: > 100 µM (inactive)
- GI50 [9]: > 100 µM (inactive)
- GI50 [10]: > 100 µM (inactive)
- GI50 [11]: > 100 µM (inactive)
- GI50 [12]: > 100 µM (inactive)
- GI50 [13]: > 100 µM (inactive)
- GI50 [14]: > 100 µM (inactive)
- GI50 [15]: > 100 µM (inactive)
- GI50 [16]: > 100 µM (inactive)
- GI50 [17]: > 100 µM (inactive)
- GI50 [18]: > 100 µM (inactive)
- GI50 [19]: > 100 µM (inactive)
- GI50 [20]: > 100 µM (inactive)
- GI50 [21]: > 100 µM (inactive)
- GI50 [22]: > 10 µM (inactive)
- GI50 [23]: > 100 µM (inactive)
- GI50 [24]: > 100 µM (inactive)
- GI50 [25]: > 100 µM (inactive)
- GI50 [26]: > 100 µM (inactive)
- GI50 [27]: > 100 µM (inactive)
- GI50 [28]: > 100 µM
- GI50 [29]: > 100 µM (inactive)
- GI50 [30]: > 100 µM (inactive)
- GI50 [31]: > 100 µM (inactive)
- GI50 [32]: > 100 µM (inactive)
- GI50 [33]: > 100 µM (inactive)
- GI50 [34]: > 100 µM (inactive)
- GI50 [35]: > 100 µM (inactive)
- GI50 [36]: > 100 µM (inactive)
- GI50 [37]: > 100 µM (inactive)
- GI50 [38]: > 100 µM (inactive)
- GI50 [39]: > 100 µM (inactive)
- GI50 [40]: > 100 µM (inactive)
- GI50 [41]: > 100 µM (inactive)
- GI50 [42]: > 100 µM (inactive)
- GI50 [43]: > 100 µM (inactive)
- GI50 [44]: > 100 µM (inactive)
- GI50 [45]: > 100 µM (inactive)
- GI50 [46]: > 100 µM (inactive)
- GI50 [47]: > 100 µM (inactive)
- GI50 [48]: > 100 µM (inactive)
- GI50 [49]: > 100 µM (inactive)

Structure (SMILES): COC(=O)/C=C/C(=O)C1C(C(=O)OC)C2(C(=O)OC)CCC1(C(=O)OC)N2 (configuration not stated)
- GI50 [1]: > 100 µM (inactive)
- GI50 [50]: > 100 µM (inactive)
- GI50 [4]: > 100 µM (inactive)
- GI50 [5]: > 100 µM (inactive)
- GI50 [6]: < 0.01 µM (active)
- GI50 [8]: > 100 µM (inactive)
- GI50 [9]: > 100 µM (inactive)
- GI50 [10]: > 100 µM (inactive)
- GI50 [51]: > 100 µM (inactive)
- GI50 [11]: > 100 µM (inactive)
- GI50 [12]: > 100 µM (inactive)
- GI50 [13]: > 100 µM (inactive)
- GI50 [14]: > 100 µM (inactive)
- GI50 [15]: > 100 µM (inactive)
- GI50 [17]: > 100 µM (inactive)
- GI50 [18]: > 100 µM (inactive)
- GI50 [19]: > 100 µM (inactive)
- GI50 [52]: > 100 µM (inactive)
- GI50 [20]: > 100 µM (inactive)
- GI50 [53]: > 100 µM (inactive)
- GI50 [21]: > 100 µM (inactive)
- GI50 [22]: > 100 µM (inactive)
- GI50 [23]: > 100 µM (inactive)
- GI50 [24]: > 100 µM (inactive)
- GI50 [25]: > 100 µM (inactive)
- GI50 [54]: > 100 µM (inactive)
- GI50 [28]: > 100 µM
- GI50 [29]: > 100 µM (inactive)
- GI50 [30]: > 100 µM (inactive)
- GI50 [32]: > 100 µM (inactive)
- GI50 [35]: 0.198 µM (active)
- GI50 [36]: > 100 µM (inactive)
- GI50 [38]: > 100 µM (inactive)
- GI50 [39]: > 100 µM (inactive)
- GI50 [40]: > 100 µM (inactive)
- GI50 [41]: > 100 µM (inactive)
- GI50 [42]: > 100 µM (inactive)
- GI50 [43]: > 100 µM (inactive)
- GI50 [44]: > 100 µM (inactive)
- GI50 [45]: > 100 µM (inactive)
- GI50 [55]: > 100 µM (inactive)
- GI50 [56]: > 100 µM (inactive)
- GI50 [46]: > 100 µM (inactive)
- GI50 [48]: > 100 µM (inactive)

Structure (SMILES): CCOC(=O)c1oc2c(OC)cc(Cl)c3c2c1CCC3
- GI50 [1]: > 100 µM (inactive)
- GI50 [50]: > 100 µM (inactive)
- GI50 [2]: > 100 µM (inactive)
- GI50 [3]: 64.7 µM (inactive)
- GI50 [4]: 58.1 µM (inactive)
- GI50 [5]: > 100 µM (inactive)
- GI50 [6]: 20.7 µM (inactive)
- GI50 [7]: 29.2 µM (inactive)
- GI50 [8]: > 100 µM (inactive)
- GI50 [9]: > 100 µM (inactive)
- GI50 [10]: 58.3 µM (inactive)
- GI50 [51]: > 100 µM (inactive)
- GI50 [11]: 31.5 µM (inactive)
- GI50 [12]: > 100 µM (inactive)
- GI50 [13]: 30.8 µM (inactive)
- GI50 [14]: 13.6 µM (inactive)
- GI50 [15]: 45 µM (inactive)
- GI50 [16]: 26.2 µM (inactive)
- GI50 [17]: > 100 µM (inactive)
- GI50 [18]: > 100 µM (inactive)
- GI50 [19]: > 100 µM (inactive)
- GI50 [52]: 24.2 µM (inactive)
- GI50 [20]: 38.3 µM (inactive)
- GI50 [53]: > 100 µM (inactive)
- GI50 [21]: > 100 µM (inactive)
- GI50 [23]: > 100 µM (inactive)
- GI50 [24]: > 100 µM (inactive)
- GI50 [25]: 35.4 µM (inactive)
- GI50 [57]: 12.2 µM (inactive)
- GI50 [26]: > 100 µM (inactive)
- GI50 [27]: 30.3 µM (inactive)
- GI50 [54]: > 100 µM (inactive)
- GI50 [28]: > 100 µM
- GI50 [30]: 50.8 µM (inactive)
- GI50 [31]: > 100 µM (inactive)
- GI50 [32]: > 100 µM (inactive)
- GI50 [33]: > 100 µM (inactive)
- GI50 [34]: 69.8 µM (inactive)
- GI50 [35]: 19.5 µM (inactive)
- GI50 [36]: > 100 µM (inactive)
- GI50 [37]: > 100 µM (inactive)
- GI50 [38]: > 100 µM (inactive)
- GI50 [39]: 44.3 µM (inactive)
- GI50 [40]: 59.8 µM (inactive)
- GI50 [41]: > 100 µM (inactive)
- GI50 [42]: 27.4 µM (inactive)
- GI50 [43]: > 100 µM (inactive)
- GI50 [44]: 28.6 µM (inactive)
- GI50 [45]: > 100 µM (inactive)
- GI50 [55]: 38.6 µM (inactive)
- GI50 [46]: > 100 µM (inactive)
- GI50 [47]: > 100 µM (inactive)
- GI50 [48]: > 100 µM (inactive)
- GI50 [49]: 92 µM (inactive)
